Laboratory results from the OligoGym collection.
HELM strings list units from the 5' end as sugar, base in round brackets, then linkage (d deoxyribose, r ribose, m 2'-O-methyl, p phosphodiester). Strings are as the collection lists them; they lack the last nucleoside at the 3' end of the tested compound. [moe] = 2'-O-(2-methoxyethyl) (MOE); [sp] = phosphorothioate linkage; [m5C] = 5-methylcytosine

Target: ATXN2
Assay: mouse, dose not given
Details: ASO

Substance | 3 h FOB score [score 0-7]
RNA1{[moe]([m5C])[sp].[moe](T)p.[moe](T)p.[moe](T)p.[moe](T)p.d([m5C])[sp].d(T)[sp].d([m5C])[sp].d(A)[sp].d(T)[sp].d(G)[sp].d(T)[sp].d(G)[sp].d([m5C])[sp].d(G)[sp].[moe](G)p.[moe]([m5C])p.[moe](A)[sp].[moe](T)}$$$$ (last 3' nucleoside missing) | 6.25
RNA1{[moe](G)[sp].[moe]([m5C])p.[moe](T)p.[moe](T)p.[moe](A)p.d(T)[sp].d(T)[sp].d(A)[sp].d(T)[sp].d(T)[sp].d([m5C])[sp].d(T)[sp].d([m5C])[sp].d(A)[sp].d([m5C])[sp].[moe](A)p.[moe](T)p.[moe](A)[sp].[moe](T)}$$$$ (last 3' nucleoside missing) | 0
RNA1{[moe](A)[sp].[moe](T)p.[moe](G)p.[moe]([m5C])p.[moe](A)p.d(G)[sp].d(T)[sp].d(A)[sp].d([m5C])[sp].d(A)[sp].d(A)[sp].d([m5C])[sp].d(A)[sp].d(T)[sp].d(T)[sp].[moe]([m5C])p.[moe]([m5C])p.[moe](A)[sp].[moe](T)}$$$$ (last 3' nucleoside missing) | 0
RNA1{[moe](T)[sp].[moe](G)p.[moe](G)p.[moe](A)p.d(T)[sp].d(T)[sp].d([m5C])[sp].d(T)[sp].d(G)[sp].d(T)[sp].d(A)[sp].d([m5C])[sp].d(T)[sp].d(T)[sp].[moe](T)p.[moe](T)p.[moe]([m5C])p.[moe](T)[sp].[moe]([m5C])}$$$$ (last 3' nucleoside missing) | 3.5
RNA1{[moe](T)[sp].[moe](A)p.[moe]([m5C])p.[moe](G)p.[moe]([m5C])p.d(G)[sp].d(G)[sp].d(T)[sp].d(G)[sp].d(A)[sp].d(A)[sp].d(T)[sp].d(T)[sp].d([m5C])[sp].d(T)[sp].[moe](G)p.[moe](T)p.[moe]([m5C])[sp].[moe](T)}$$$$ (last 3' nucleoside missing) | 0
RNA1{[moe](A)[sp].[moe](G)p.[moe](G)p.[moe](G)p.[moe](T)p.d(T)[sp].d(A)[sp].d(A)[sp].d(T)[sp].d(T)[sp].d(A)[sp].d(G)[sp].d(G)[sp].d(A)[sp].d(T)[sp].[moe]([m5C])p.[moe](T)p.[moe](A)[sp].[moe](T)}$$$$ (last 3' nucleoside missing) | 6
RNA1{[moe](T)[sp].[moe](G)p.[moe](T)p.[moe](A)[sp].[moe]([m5C])[sp].d(T)[sp].d(T)[sp].d([m5C])[sp].d(A)[sp].d([m5C])[sp].d(A)[sp].d(T)[sp].d(T)[sp].d(T)[sp].d(G)[sp].[moe](G)p.[moe](A)p.[moe](G)[sp].[moe]([m5C])}$$$$ (last 3' nucleoside missing) | 3
RNA1{[moe](G)[sp].[moe](A)p.[moe](T)p.[moe](T)p.[moe](A)p.d(A)[sp].d([m5C])[sp].d(G)[sp].d(G)[sp].d(T)[sp].d(T)[sp].d(G)[sp].d([m5C])[sp].d(T)[sp].d(T)[sp].[moe](A)p.[moe](G)p.[moe](G)[sp].[moe](G)}$$$$ (last 3' nucleoside missing) | 6.5
RNA1{[moe](G)[sp].[moe]([m5C])p.[moe](T)p.[moe](A)p.[moe](A)[sp].d([m5C])[sp].d(T)[sp].d(G)[sp].d(G)[sp].d(T)[sp].d(T)[sp].d(T)[sp].d(G)[sp].[moe]([m5C])p.[moe]([m5C])p.[moe]([m5C])[sp].[moe](T)}$$$$ (last 3' nucleoside missing) | 6.5
RNA1{[moe](T)[sp].[moe]([m5C])p.[moe]([m5C])p.[moe](A)p.[moe](T)p.d(T)[sp].d(A)[sp].d(T)[sp].d(T)[sp].d(T)[sp].d([m5C])[sp].d(T)[sp].d(T)[sp].d([m5C])[sp].d(A)[sp].[moe]([m5C])p.[moe](G)p.[moe](T)[sp].[moe](T)}$$$$ (last 3' nucleoside missing) | 1
RNA1{[moe](A)[sp].[moe](G)p.[moe]([m5C])p.[moe](T)p.[moe]([m5C])p.d(T)[sp].d(G)[sp].d(T)[sp].d(T)[sp].d([m5C])[sp].d(G)[sp].d(A)[sp].d(T)[sp].d(G)[sp].d([m5C])[sp].[moe](A)p.[moe](G)p.[moe](G)[sp].[moe](A)}$$$$ (last 3' nucleoside missing) | 4
RNA1{[moe]([m5C])[sp].[moe](T)p.[moe](G)p.[moe](G)p.d(A)[sp].d(T)[sp].d(T)[sp].d([m5C])[sp].d(T)[sp].d(G)[sp].d(T)[sp].d(A)[sp].d([m5C])[sp].d(T)[sp].[moe](T)p.[moe](T)p.[moe](T)p.[moe]([m5C])[sp].[moe](T)}$$$$ (last 3' nucleoside missing) | 2
RNA1{[moe](G)[sp].[moe](G)p.[moe](T)p.[moe](G)p.[moe](G)[sp].d(T)[sp].d(G)[sp].d(T)[sp].d(G)[sp].d([m5C])[sp].d(G)[sp].d([m5C])[sp].d(A)[sp].[moe](T)p.[moe](G)p.[moe](T)[sp].[moe](A)}$$$$ (last 3' nucleoside missing) | 7
RNA1{[moe](G)[sp].[moe]([m5C])p.[moe](T)p.[moe](T)p.[moe](A)[sp].d(G)[sp].d(A)[sp].d(G)[sp].d(T)[sp].d(T)[sp].d(T)[sp].d(T)[sp].d(T)[sp].[moe](G)p.[moe]([m5C])p.[moe]([m5C])[sp].[moe](T)}$$$$ (last 3' nucleoside missing) | 4
RNA1{[moe](G)[sp].[moe](T)p.[moe](G)p.[moe](A)p.[moe](G)p.d(T)[sp].d(T)[sp].d([m5C])[sp].d(A)[sp].d([m5C])[sp].d([m5C])[sp].d(T)[sp].d(G)[sp].d([m5C])[sp].d(A)[sp].[moe](T)p.[moe]([m5C])p.[moe]([m5C])[sp].[moe]([m5C])}$$$$ (last 3' nucleoside missing) | 2.25
RNA1{[moe]([m5C])[sp].[moe](T)p.[moe]([m5C])p.[moe](T)p.[moe]([m5C])[sp].d([m5C])[sp].d(A)[sp].d(T)[sp].d(T)[sp].d(A)[sp].d(T)[sp].d(T)[sp].d(T)[sp].[moe]([m5C])p.[moe](T)p.[moe](T)[sp].[moe]([m5C])}$$$$ (last 3' nucleoside missing) | 0
RNA1{[moe]([m5C])[sp].[moe](T)p.[moe]([m5C])p.[moe]([m5C])p.[moe](T)p.d(A)[sp].d(T)[sp].d([m5C])[sp].d(A)[sp].d(T)[sp].d([m5C])[sp].d(A)[sp].d(T)[sp].d(T)[sp].d(T)[sp].[moe](T)p.[moe]([m5C])p.[moe]([m5C])[sp].[moe](A)}$$$$ (last 3' nucleoside missing) | 1
RNA1{[moe](A)[sp].[moe](G)p.[moe](T)p.[moe](T)p.[moe]([m5C])p.d(A)[sp].d([m5C])[sp].d([m5C])[sp].d(T)[sp].d(G)[sp].d([m5C])[sp].d(A)[sp].d(T)[sp].d([m5C])[sp].d([m5C])[sp].[moe]([m5C])p.[moe](A)p.[moe](G)[sp].[moe](G)}$$$$ (last 3' nucleoside missing) | 5.5
RNA1{[moe](T)[sp].[moe](T)p.[moe](A)p.[moe]([m5C])p.[moe](T)p.d(G)[sp].d(T)[sp].d(T)[sp].d(T)[sp].d([m5C])[sp].d(G)[sp].d(A)[sp].d([m5C])[sp].d([m5C])[sp].d(T)[sp].[moe]([m5C])p.[moe](T)p.[moe](G)[sp].[moe](A)}$$$$ (last 3' nucleoside missing) | 4.5
RNA1{[moe](G)[sp].[moe](T)p.[moe](A)p.[moe](T)p.[moe](T)p.d(T)[sp].d(T)[sp].d(T)[sp].d([m5C])[sp].d(T)[sp].d(T)[sp].d([m5C])[sp].d([m5C])[sp].d(T)[sp].d([m5C])[sp].[moe](A)p.[moe]([m5C])p.[moe](T)[sp].[moe]([m5C])}$$$$ (last 3' nucleoside missing) | 3.25
RNA1{[moe](G)[sp].[moe](T)p.[moe](A)p.[moe]([m5C])p.[moe](T)p.d(T)[sp].d(T)[sp].d(T)[sp].d([m5C])[sp].d(T)[sp].d([m5C])[sp].d(A)[sp].d(T)[sp].d(G)[sp].d(T)[sp].[moe](G)p.[moe]([m5C])p.[moe](G)[sp].[moe](G)}$$$$ (last 3' nucleoside missing) | 1
RNA1{[moe](T)[sp].[moe](A)p.[moe]([m5C])p.[moe](A)p.[moe](G)p.d(G)[sp].d(T)[sp].d(G)[sp].d(A)[sp].d(G)[sp].d(A)[sp].d(T)[sp].d(A)[sp].d(T)[sp].d(A)[sp].[moe](T)p.[moe](A)p.[moe](G)[sp].[moe](G)}$$$$ (last 3' nucleoside missing) | 4
RNA1{[moe](A)[sp].[moe](T)p.[moe](G)p.[moe](A)p.[moe](T)p.d([m5C])[sp].d(T)[sp].d(T)[sp].d(G)[sp].d(T)[sp].d(G)[sp].d(T)[sp].d(A)[sp].d(T)[sp].d(A)[sp].[moe](T)p.[moe](A)p.[moe](T)[sp].[moe](T)}$$$$ (last 3' nucleoside missing) | 6
RNA1{[moe](A)[sp].[moe]([m5C])p.[moe](G)p.[moe]([m5C])p.[moe](T)p.d(G)[sp].d(T)[sp].d(A)[sp].d(T)[sp].d(T)[sp].d(T)[sp].d(T)[sp].d(T)[sp].d(A)[sp].d([m5C])[sp].[moe](T)p.[moe]([m5C])p.[moe](A)[sp].[moe]([m5C])}$$$$ (last 3' nucleoside missing) | 0
RNA1{[moe]([m5C])[sp].[moe]([m5C])p.[moe]([m5C])p.[moe](A)p.[moe](A)p.d(A)[sp].d(G)[sp].d(G)[sp].d(G)[sp].d(T)[sp].d(T)[sp].d(A)[sp].d(A)[sp].d(T)[sp].d(T)[sp].[moe](A)p.[moe](G)p.[moe](G)[sp].[moe](A)}$$$$ (last 3' nucleoside missing) | 1
RNA1{[moe](T)[sp].[moe](G)p.[moe](A)p.[moe](G)p.[moe](T)p.d(T)[sp].d([m5C])[sp].d(A)[sp].d([m5C])[sp].d([m5C])[sp].d(T)[sp].d(G)[sp].d([m5C])[sp].d(A)[sp].d(T)[sp].[moe]([m5C])p.[moe]([m5C])p.[moe]([m5C])[sp].[moe](A)}$$$$ (last 3' nucleoside missing) | 5.75
